IC50 data for 50 compounds are collected here from the Kinase Knowledgebase extract (Sharma et al. 2016).

The test concerns the target CDK2 (human) (UniProt P24941). Nature of the test: Enzyme Assay.

One may read the IC50 as the midpoint of a concentration-inhibition curve. High values mean weaker potency, low ones greater potency.

The structures appear in SMILES notation.

`COC(=O)[C@H](Cc1ccc(O)cc1)NC(=O)c1cc(C(=O)O)c2cc(-c3cc(Cl)cc(Cl)c3)ccc2n1` came in with an IC50 of no more than 1000 nM.

In turn, `COC[C@H](Cc1ccc(O)cc1)NC(=O)c2cc(C(=O)O)c3cc(ccc3n2)c4cccc(CN5=CC(=CC=C5)O)c4` showed an IC50 of no more than 1000 nM.

Take `COC(=O)[C@H](Cc1ccc(O)cc1)NC(=O)c1cc(C(=O)O)c2cc(CCC(C)(C)C)ccc2n1`: the IC50 is no more than 1000 nM. As to `COC(=O)[C@H](Cc1ccc(O)cc1)NC(=O)c1cc(C(=O)O)c2cc(-c3ccc(C(C)C)cc3)ccc2n1`, the IC50 was no more than 1000 nM.

As for `COC(=O)[C@H](Cc1ccc(O)cc1)NC(=O)c1cc(C(=O)O)c2cc(-c3cc4ccccc4o3)ccc2n1`, the IC50 was no more than 1000 nM.

In turn, `COC(=O)[C@H](Cc1ccc(O)cc1)NC(=O)c1cc(C(=O)O)c2cc(-c3ccc(Oc4ccccc4)cc3)ccc2n1` displayed an IC50 of no more than 1000 nM. On to `COC[C@H](Cc1ccc(O)cc1)NC(=O)c1cc(NS(=O)(=O)C(C)(C)C)c2cc(-c3cccc(COc4ccccn4)c3)ccc2n1`, for which the IC50 was no more than 1000 nM. Take `COC[C@H](Cc1ccc(O)cc1)NC(=O)c1cc(C(=O)O)c2cc(C=Cc3ccc(Cl)cc3)ccc2n1`: the half-maximal inhibitory concentration (IC50) is no more than 1000 nM. In turn, `COC[C@H](Cc1ccc(O)cc1)NC(=O)c1cc(C(=O)O)c2cc(OCc3ccc(C(F)(F)F)cc3)ccc2n1` had an IC50 of no more than 1000 nM. As for `COC(=O)[C@H](Cc1ccc(O)cc1)NC(=O)c1cc(C(=O)O)c2cc(-c3cccs3)ccc2n1`, the figure is no more than 1000 nM; as for `COC(=O)[C@H](Cc1ccc(O)cc1)NC(=O)c1cc(C(=O)O)c2cc(-c3cc4ccccc4s3)ccc2n1`, no more than 1000 nM; as for `CNC(=O)[C@H](Cc1ccc(O)cc1)NC(=O)c1cc(C(=O)O)c2cc(C=Cc3ccc(Cl)cc3)ccc2n1`, no more than 1000 nM.

Compound `CN(C)C(=O)[C@H](Cc1ccc(O)cc1)NC(=O)c1cc(C(=O)O)c2cc(C=Cc3ccc(Cl)cc3)ccc2n1` returned an IC50 of no more than 1000 nM.

As for `O=C(NC(Cc1ccc(O)cc1)C1CCCCC1)c1cc(C(=O)O)c2cc(-c3cccc(C(F)(F)F)c3)ccc2n1` (stereo not given), the IC50 is no more than 1000 nM. Regarding `COC[C@H](Cc1ccc(O)cc1)NC(=O)c1cc(C(=O)O)c2cc(-c3cccc(Cn4ccccc4=O)c3)ccc2n1`, the IC50 was no more than 1000 nM.

`COC[C@H](Cc1ccc(O)cc1)NC(=O)c1cc(C(=O)O)c2cc(-c3cccc(C(F)(F)F)c3)ccc2n1` yielded an IC50 of no more than 1000 nM. `COC(=O)[C@H](Cc1ccc(O)cc1)NC(=O)c1cc(C(=O)O)c2cc(CCc3ccccc3)ccc2n1` registered a half-maximal inhibitory concentration (IC50) of no more than 1000 nM.

Compound `COC(=O)[C@H](Cc1ccc(O)cc1)NC(=O)c1cc(C(=O)O)c2cc(-c3ccc(F)c(Cl)c3)ccc2n1` showed an IC50 of no more than 1000 nM.

The compound `CCCC(Cc1ccc(O)cc1)NC(=O)c1cc(C(=O)O)c2cc(-c3cccc(C(F)(F)F)c3)ccc2n1` (stereo not given) registered an IC50 of no more than 1000 nM. As for `COC(=O)[C@H](Cc1ccc(O)cc1)NC(=O)c1cc(C(=O)O)c2cc(-c3ccc(C)s3)ccc2n1`, the IC50 is no more than 1000 nM.

Consider `COC(=O)[C@H](Cc1ccc(O)cc1)NC(=O)c1cc(C(=O)O)c2cc(C=Cc3ccc(Cl)cc3)ccc2n1`, for which the IC50 was no more than 1000 nM. In the case of `CCCCCC=Cc1ccc2nc(C(=O)N[C@H](COC)Cc3ccc(O)cc3)cc(C(=O)O)c2c1`, the IC50 is no more than 1000 nM. Consider `COC(=O)[C@H](Cc1ccc(O)cc1)NC(=O)c1cc(C(=O)O)c2cc(-c3ccc(OC)cc3)ccc2n1`, for which the IC50 is no more than 1000 nM. Compound `COC(=O)[C@H](Cc1ccc(O)cc1)NC(=O)c1cc(C(=O)O)c2cc(-c3cccc(C)c3)ccc2n1` showed an IC50 of no more than 1000 nM. `COC(=O)[C@H](Cc1ccc(O)cc1)NC(=O)c1cc(C(=O)O)c2cc(-c3ccc(F)c(C)c3)ccc2n1` gave an IC50 of no more than 1000 nM.

As for `COC(=O)[C@H](Cc1ccc(O)cc1)NC(=O)c1cc(C(=O)O)c2cc(CCc3ccc(Cl)cc3)ccc2n1`, the IC50 is no more than 1000 nM. Turning to `COC(=O)[C@H](Cc1ccc(O)cc1)NC(=O)c1cc(C(=O)O)c2cc(CCc3ccc(F)cc3)ccc2n1`, the IC50 is no more than 1000 nM.

Consider `COC(=O)[C@H](Cc1ccc(O)cc1)NC(=O)c1cc(C(=O)O)c2cc(C=CC(C)(C)C)ccc2n1`, for which the IC50 is no more than 1000 nM. As for `CCCCCCc1ccc2nc(C(=O)N[C@@H](Cc3ccc(O)cc3)C(=O)OC)cc(C(=O)O)c2c1`, the figure is no more than 1000 nM; as for `COC[C@H](Cc1ccc(O)cc1)NC(=O)c1cc(S(=O)(=O)O)c2cc(-c3cccc(C(F)(F)F)c3)ccc2n1`, no more than 1000 nM. `COC(=O)[C@H](Cc1ccc(O)cc1)NC(=O)c1cc(C(=O)O)c2cc(-c3ccc(Cl)c(Cl)c3)ccc2n1` came in with an IC50 of no more than 1000 nM. `COC[C@H](Cc1ccc(O)cc1)NC(=O)c1cc(-c2nnn[nH]2)c2cc(-c3cccc(C(F)(F)F)c3)ccc2n1` displayed an IC50 of no more than 1000 nM. The compound `COC(=O)[C@H](Cc1ccc(O)cc1)NC(=O)c1cc(C(=O)O)c2cc(-c3cccc(C(C)C)c3)ccc2n1` gave an IC50 of no more than 1000 nM.

In turn, `COC(=O)[C@H](Cc1ccc(O)cc1)NC(=O)c1cc(C(=O)O)c2cc(-c3ccccc3)ccc2n1` gave an IC50 of no more than 1000 nM. `O=C(N[C@@H](Cc1ccc(O)cc1)C(=O)NC1CC1)c1cc(C(=O)O)c2cc(C=Cc3ccc(Cl)cc3)ccc2n1` returned an IC50 of no more than 1000 nM. Under `COC(=O)[C@H](Cc1ccc(O)cc1)NC(=O)c1cc(NS(C)(=O)=O)c2cc(-c3cccc(C(F)(F)F)c3)ccc2n1` stands no more than 1000 nM; under `COC(=O)[C@H](Cc1ccc(O)cc1)NC(=O)c1cc(C(=O)O)c2cc(-c3ccc(OC(F)(F)F)cc3)ccc2n1`, no more than 1000 nM.

In the case of `COC(=O)[C@H](Cc1ccc(O)cc1)NC(=O)c1cc(C(=O)O)c2cc(-c3ccc(Cl)cc3)ccc2n1`, the IC50 is no more than 1000 nM.

`COC(=O)[C@H](Cc1ccc(O)cc1)NC(=O)c1cc(C(=O)O)c2cc(-c3cccc([N+](=O)[O-])c3)ccc2n1` displayed an IC50 of no more than 1000 nM. `COC(=O)[C@H](Cc1ccc(O)cc1)NC(=O)c1cc(C(=O)O)c2cc(C=Cc3ccc(F)cc3)ccc2n1` yielded an IC50 of no more than 1000 nM. `CON=C[C@H](Cc1ccc(O)cc1)NC(=O)c1cc(C(=O)O)c2cc(-c3cccc(C(F)(F)F)c3)ccc2n1` registered an IC50 of no more than 1000 nM. With `COC(=O)[C@H](Cc1ccc(O)cc1)NC(=O)c1cc(C(=O)O)c2cc(CCc3ccc(C(F)(F)F)cc3)ccc2n1`, the IC50 is no more than 1000 nM. In turn, `COC(=O)[C@H](Cc1ccc(O)cc1)NC(=O)c1cc(C(=O)O)c2cc(-c3cccc(-c4ccccc4)c3)ccc2n1` showed an IC50 of no more than 1000 nM. As to `O=C(N[C@@H](Cc1ccc(O)cc1)c1ncc[nH]1)c1cc(C(=O)O)c2cc(-c3cccc(C(F)(F)F)c3)ccc2n1`, the IC50 is no more than 1000 nM. `COC(=O)[C@H](Cc1ccc(O)cc1)NC(=O)c1cc(C(=O)O)c2cc(-c3ccc(C)c([N+](=O)[O-])c3)ccc2n1` yielded an IC50 of no more than 1000 nM. The compound `COC(=O)[C@H](Cc1ccc(O)cc1)NC(=O)c1cc(C(=O)O)c2cc(-c3cccc(C#N)c3)ccc2n1` returned an IC50 of no more than 1000 nM. `CCCCCCCc1ccc2nc(C(=O)N[C@H](COC)Cc3ccc(O)cc3)cc(C(=O)O)c2c1`: the IC50 was no more than 1000 nM. With `COC(=O)[C@H](Cc1ccc(O)cc1)NC(=O)c1cc(C(=O)O)c2cc(-c3cc(C)cc(C)c3)ccc2n1`, the IC50 is no more than 1000 nM.

Compound `Cc1cnc([C@H](Cc2ccc(O)cc2)NCc2cc(C(=O)O)c3cc(-c4cccc(C(F)(F)F)c4)ccc3n2)o1` returned an IC50 of no more than 1000 nM. Under `CCCCCC#Cc1ccc2nc(C(=O)N[C@H](COC)Cc3ccc(O)cc3)cc(C(=O)O)c2c1` stands no more than 1000 nM.
